These are literature values, as cited in US20250381197A1, “Regimen for Treating Amyotrophic Lateral Sclerosis Having Onset 24 Months Prior to Treatment” (Woolsey Pharmaceuticals, Inc., priority 2022, published 2025).

Read-outs that look alike come from different tables or passages of the source.

The test system of one data set is human ALS patients. The following applies: 30 mg intravenously twice daily over 20 consecutive working days; 3 patients; cited from earlier work.
Data set [1] relates to ALS patients. The note with it: 6-month study; ALS onset between 3 and 36 months; 30 mg twice a day; cited from earlier work.
The conditions of data set [2]: 1-hydroxy (M3) metabolite; cited from earlier work.
Data set [3] concerns ALS patients. The following applies: cited from earlier work.

`Cl.O=S(=O)(c1cccc2cnccc12)N1CCCNCC1` [Fasudil, Hexahydro-1-(5-isoquinolinesulfonyl)-1H-1,4-diazepine monohydrochloride hemihydrate]: the “outcome of compassionate use” value in the data set on human ALS patients is “no conclusive results beyond safety”. The disease modification entry in the data set on ALS patients [1] is listed as “did not result in any disease modification”.
For `O=S(=O)(c1cccc2c(O)nccc12)N1CCCNCC1` [M3], the half-life entry in data set [2] is “about 8 hours”.
Regarding `CC1=NN(c2ccccc2)C(=O)C1` [edaravone], the figures for the primary endpoint entry with ALS patients [3] (enrollment narrowed to patients diagnosed two years or less (Tanaka 2016a)) and with ALS patients [3] (enrollment of three years or less (Abe 2017)) were “met the primary endpoint” and “did not meet the primary endpoint”, respectively. Also, in the data set with ALS patients [3] (severe ALS patients, disease onset of less than three years (Tanaka 2016b)), the “treatment effect between placebo and edaravone” value was “failed to demonstrate any treatment effect”.
